Measurements reported in patent US20200000798A1, “PROCESS FOR […] ALKALOID FRACTION OF R[…] (HERB.) TRAUB AND USES THEREOF” (UNIVERSIDADE FEDERAL DO RIO GRANDE DO SUL-UFRGS, priority 2013, published 2020).

What was measured:
[1] = system: mBSA-induced arthritis in Balb-C mice; assay: Antigen-induced arthritis (AIA) model, mBSA-induced monoarthritis; assay type: in vivo
Protocol: Antigen-induced arthritis (AIA) is an animal model of arthritis that is broadly described and used in worldwide literature. One of the inducing antigens in this model in Balb-C mice is methylated bovine serum albumin (mBSA), which, after systemic immunization (subcutaneous injection) is injected into the joint.
Briefly, mice were immunized in three steps with mBSA (day-0, day-7 and day-14), the first step comprising […] of mBSA protein in an emulsion of 0.1 mL of complete Freund's adjuvant's (CFA) and 0.1 mL of sterile saline solution (0.9% sodium chloride), the second and third steps were performed with the same protein concentration, the same sterile saline solution concentration and the same adjuvant concentration, but in these steps incomplete Freund's adjuvant (IFA) was used; 3 weeks after the first immunization (day 21) mBSA at a concentration of 30 ug/mL were injected into the femorotibial joint (knee) and the contralateral knee was administered with sterile saline only and serves as the control of the experiment (Grespan et al. 2008). […] Treatment with montanine was given twice daily, one day before intra-articular challenge, at the day of the challenge and at day of death, by intraperitoneal route and diluted in saline. Doses tested were 0.3; 1; 3 mg/kg. One group of animals received the treatment vehicle (saline) for control purposes, said group being designated positive control. The experiment is terminated at day 22 (24 hours after challenge and treatment) when animals were euthanized to collect the joint lavage fluid. Lavage was performed using a PBS-EDTA solution and then the number of leukocytes existing in the joint was counted in a Neubauer chamber at a 1:2 dilution with Turk's solution. Furthermore, pain of the animals was assessed in a digital analgesia-meter (von Frey) prior to intra-articular injection at time 0 (zero), 3, 5 and 24 hours after intra-articular challenge.

[2] = system: collagen type II-induced arthritis in DBA/1J mice; assay: Collagen-induced arthritis (CIA) model with therapeutic treatment; assay type: in vivo
Protocol: CIA induction is performed by following the aforementioned protocol.
After the boost injection, animals were monitored daily for clinical signs of the disease and treatment with montanine at 0.5 and 1.5 mg/kg is started on the day of clinical detection of CIA. Animals given sterile saline, the treatment vehicle, were deemed as the positive control group, i.e. untreated. The drug was administered twice daily for 10 days by the intraperitoneal route.
Animals were monitored daily for analyzing the clinical signs of arthritis by means of the severity score as follows: 0-no signs of disease; 1-mild erythema and edema; 2-moderate erythema and edema; 3-severe erythema and edema extending from the knee to the metatarsus; 4-severe erythema and edema with loss of function. The total score is the average of the scores on the legs from the onset of the disease.
Articular hypernociception was assessed as previously described by Pinto LG et al. 2010. For this model, a polypropylene tip was adapted to the manual force transducer, a force was applied on the subplantar surface of the paw producing tibiotarsal bending motion. The automatic pressure meter recorded the strength of the applied force when the paw is removed. The assay is repeated 3 times sequentially to provide a consistent measurement, the limiar being expressed in grams (g).
The tibio-tarsal joints of DBA/1 J animals were isolated and immersed in 10% buffered formalin for fixation for 24 hours. Then, tissues were decalcified in 10% trichloroacetic acid (TCA) for approximately 18 hours. These tissues were dehydrated and embedded in paraffin blocks. Six pm-thick cuts were arranged on a microscope slide. […] All the cuts were assessed under a microscope by two blinded observers, and the images captured by digital camera.

synovial fibroblasts = assay: Synovial fibroblast invasion test (matrigel inserts); assay type: cell-based; settings: 1 μM, 24 h, five lines tested, vs DMSO vehicle
Protocol: To evaluate the invasion of synovial fibroblasts into matrigel inserts (collagen matrix) a BD kit (Franklin Lakes, N.J., USA) was used, and the test was performed in accordance with the manufacturer specifications.
When cells reached 70-80% confluence, they were trypsinized with trypsin-EDTA for digestion. Then, 2×10^4 cells were resuspended in 500 μI of free culture medium of fetal calf serum and placed on top of the insert. Montanine at a dose of 1 μM or the same concentration of vehicle (DMSO) was added on top of the insert with the cells. At the lower compartment 750 μI of culture medium with 10% fetal bovine serum was added. The plate was incubated at 37° C. for 24 h in a stove with 5% CO2. After the incubation period, the top of the chamber was cleaned with a swab, stained with crystal violet dye, and the total number of cells that invaded the Matrigel membrane was counted in an optical microscope at 100× magnification. Experiments were performed in duplicate.

[3] = system: lymphocytes from draining lymph nodes; assay: Lymphocyte proliferation assay (MTT), LPS or ConA stimulated; assay type: cell-based, BALB/c mice; settings: 1 μM, 48 h
Protocol: The in vitro lymphocyte proliferation was performed using the MTT colorimetric assay described by Tomita T et al. 2006. BALB/c mice were euthanized and their draining lymph nodes were removed aseptically. A single cell suspension was prepared, grown in triplicate (5×10^5 cells/well in a 96 well plate) and treated with montanine at the dosages of 1 μM for 48 h at 37° C. at 5% CO2 in RPMI medium containing […] lipopolysaccharide (LPS) or […] of conconavalin A (ConA) or RPMI medium alone as a culture control. After incubation, MTT (0.5 mg/ml) was added to each well and the plate was placed in the stove again and after 4 hours the supernatant was removed and 50 μI of dimethyl sulphoxide (DMSO, Sigma) were added. […] After the plate was shaken to dissolve the formazan crystals, optical density (OD) of each well was measured at 570 nm.
LPS acts primarily on the B cell receptor and the Toll-like receptor 4 (TLR4), molecules that are present on the surface of B lymphocytes, thus acting on these cells. ConA acts on several receptors containing glycoproteins or lipoproteins, stimulating both lymphocytes both but acting preferably on T lymphocytes.

healthy mice = assay: Immunosuppression assay in healthy animals (complete blood count); assay type: in vivo; settings: 0.5 or 1.5 mg/kg every 12 hours for 3 days, then 3 days without treatment
Protocol: An immunosuppression assay in healthy animals was performed to assess the role of montanine as an immunosuppressive agent. 20 male, healthy mice of 8-12 weeks of age were used for examining the whole blood (complete blood count—parameters of: total of white blood cells (WBC); % lymphocytes (Lin %), lymphocytes/mm3 (Lin mm30; % monocytes (Mon %); monocytes/mm3 (Mon mm3); % granulocytes (Gran %); granulocytes/mm3 (Gran/mm3); total of red blood cells (RBC); hemoglobin (HGB) and total of platelets (PLQ)) of animals, which were divided as follows: healthy animals (with no treatment given) (n=4), animals treated with 0.5 or 1.5 mg/kg de montanine/12-12 hours (n=8/group). Whole blood was collected at day 0 for basal analysis of the blood parameters of the complete blood count in all animals, they were then treated for 3 days with the two doses and on the third day blood was collected again for complete blood count analysis; also, animals were still alive for three more days without any treatment for a new blood collection (FIG. 9).

lymphocyte migration = settings: 100 micrograms/mL, vs placebo; cited from earlier work
[4] = system: collagen type II-induced arthritis in DBA/1J mice; assay: Collagen-induced arthritis (CIA) model with prophylactic treatment; assay type: in vivo
Protocol: The chronic arthritis model most widely used in the world literature is the model of collagen type II-induced arthritis (CIA). Said model shares many pathological features with the disease, such as type II collagen (CM), the major cartilage protein and one of the potential RA self-antigens. […]
After the boost injection, treatment at dosages of 0.05; 0,25 and 0.5 mg/kg was started and continued for 15 days (twice daily, intraperitoneally) and animals were monitored daily for clinical signs of the disease.
Animals were monitored daily for analyzing the clinical signs of arthritis by means of the severity score as follows: 0—no signs of disease; 1—mild erythema and edema; 2—moderate erythema and edema; 3—severe erythema and edema extending from the knee to the metatarsus; 4—severe erythema and edema with loss of function. […]
The tibio-tarsal joints of DBA/1 J animals were isolated and immersed in 10% buffered formalin for fixation for 24 hours. […] All the cuts were assessed under a microscope by two blinded observers, and the images captured by digital camera.

[5] = system: lymphocytes from draining lymph nodes; assay: Lymphocyte viability test (MTT); assay type: cell-based; settings: 48 hours
Protocol: A lymphocyte viability test was performed to evaluate the cytotoxicity of montanine using a colorimetric MTT [3-(4,5-dimethylthiazol-2-yl)-2,5-diphenyl tetrazolium bromide] assay, as described by Tomita T. et al. 2006. Animals were euthanized and their draining lymph nodes (popliteal and inguinal) were removed aseptically. A single cell suspension was prepared, grown in triplicate (5×10^5 cells/well in a 96 well plate) and treated with montanine at the dosages (0.01 μM, 0.1 μM, 1 μM, 10 μM and 100 μM) for 48 hours at 37° C. at 5% CO2 in RPMI medium. After incubation, MTT (0.5 mg/ml) was added to each well and the plate was placed in the stove again and after 4 hours the supernatant was removed and 50 μI of dimethyl sulphoxide (DMSO, Sigma) were added. After the plate was shaken to dissolve the MTT formazan crystals, optical density (OD) of each well was measured at 570 nm using a microplate ELISA reader.

[6] = 0.5 mg/kg i.p. twice daily for 10 days

## CO[C@H]1C=C2[C@H]3C[N@@](Cc4cc5c(cc43)OCO5)[C@H]2C[C@@H]1O [montanine]
[1]; 3 mg/kg i.p. twice daily
  pain (joint hypernociception), onset of decrease: decrease as of 3 hours
[1]; 0.3, 1, 3 mg/kg i.p. twice daily, 0, 3, 5 and 24 hours after intra-articular challenge
  pain (joint hypernociception, von Frey): reduction in pain at all tested doses
[1]; 0.3, 1, 3 mg/kg i.p., 24 hours after challenge, compared with saline group
  total leukocyte migration to the femorotibial joint: significantly reduced at all three doses
[2]; 0.5 mg/kg i.p. twice daily
  arthritis clinical score: reduction of the clinical score from the third day of treatment
[2]; [6]
  histological parameters of the joint: improved all the histological parameters, except for synovial hyperplasia
  pain (articular nociception): reduced pain
Synovial fibroblasts
  invasion of synovial fibroblasts: reduced the invasion of synovial fibroblasts of the five lines tested
[3]; ConA
  lymphocyte proliferation stimulated by ConA: significantly decreased
[3]; LPS
  lymphocyte proliferation stimulated by LPS: had no effect
Healthy mice
  immunosuppression (complete blood count): does not lead to immunosuppression in any of the tested dosages
Lymphocyte migration
  anti-inflammatory effect on the lymphocyte migration model: unable to generate a different effect than the placebo
[4]; 0.5 mg/kg i.p. twice daily for 15 days
  histological parameters of the joint: improved all the histological parameters of the joint, except for synovial hyperplasia
[4]; 0.25 and 0.5 mg/kg i.p. twice daily, from day 8 of treatment
  arthritis clinical score: reduced clinical score
[5]; 0.01 μM, 0.1 μM and 1 μM
  lymphocyte viability: did not alter cell viability
[5]; 10 μM
  lymphocyte viability: no significant difference between the cell group and the group treated with the montanine at 10 μM, however, decreased cell viability can be seen
[5]; 100 μM
  lymphocyte viability: decreased cell viability can be seen, which was higher in the 100 μM dose
[5]; lymphocytes, MTT
  highest dose that did not exhibit any cytotoxic effects on the cells: 1 µM
